In patent US20150105252A1, “SUBSTITUTED PYRAZOLES AS HERBICIDES” (E I DU PONT DE NEMOURS AND COMPANY, priority 2013, published 2015):

Columns and labels:
[1] = system: guineagrass; assay: Test E preemergence; assay type: in vivo, Panicum maximum; conditions: 21 days, scale 0 to 100
Source text: (§1) Seeds of plant species selected from bermudagrass (Cynodon dactylon), Surinam grass (Brachiaria decumbens), crabgrass, large (large crabgrass, Digitaria sanguinalis), crabgrass, naked (naked crabgrass, Digitaria nuda), foxtail, green (green foxtail, Setaria viridis), johnsongrass (Sorghum halepense), kochia (Kochia scoparia), morningglory (pitted morningglory, Ipomoea lacunosa), nutsedge, purple (purple nutsedge, Cyperus rotundus), ragweed (common ragweed, Ambrosia elation), mustard, black (black mustard, Brassica nigra), guineagrass (Panicum maximum), dallisgrass (Paspalum dilatatum), barnyardgrass (Echinochloa crus-galli), sandbur (southern sandbur, Cenchrus echinatus), sowthistle (common sowthistle, Sonchus oleraceous), ryegrass, Italian (Italian ryegrass, Lolium multiflorum), signalgrass (broadleaf signalgrass, Brachiaria platyphylla), dayflower, VA (Virginia (VA) dayflower, Commelina virginica), bluegrass (annual bluegrass, Poa annua), quackgrass (Elytrigia repens), mallow (common mallow, Malva sylvestris), buckwheat, wild (wild buckwheat, Polygonum convolvulus), leafy spurge (Euphorbia esula), common chickweed (Stellaria media), wild poinsettia (Euphorbia heterophylla), pigweed, palmer (palmer pigweed, Amaranthus palmeri), and pigweed (redroot pigweed, Amaranthus retroflexus) were planted into a blend of loam soil and sand and treated preemergence with test chemicals formulated in a non-phytotoxic solvent mixture which included a surfactant.
(§2) Treated plants and controls were maintained in a greenhouse for 21 days, after which time all species were compared to controls and visually evaluated. Plant response ratings, summarized in Table E, are based on a scale of 0 to 100 where 0 is no effect and 100 is complete control. A dash (-) response means no test result.

[2] = system: sowthistle; assay: Test E preemergence; assay type: in vivo, Sonchus oleraceous; conditions: 21 days, scale 0 to 100
Source text: as §1, §2

[3] = system: ryegrass, Italian; assay: Test E preemergence; assay type: in vivo, Lolium multiflorum; conditions: 21 days, scale 0 to 100
Source text: as §1, §2

[4] = system: signalgrass; assay: Test E preemergence; assay type: in vivo, Brachiaria platyphylla; conditions: 21 days, scale 0 to 100
Source text: as §1, §2

[5] = system: bluegrass; assay: Test E preemergence; assay type: in vivo, Poa annua; conditions: 21 days, scale 0 to 100
Source text: as §1, §2

[6] = system: mallow; assay: Test E preemergence; assay type: in vivo, Malva sylvestris; conditions: 21 days, scale 0 to 100
Source text: as §1, §2

[7] = system: buckwheat, wild; assay: Test E preemergence; assay type: in vivo, Polygonum convolvulus; conditions: 21 days, scale 0 to 100
Source text: as §1, §2

[8] = system: pigweed; assay: Test E preemergence; assay type: in vivo, Amaranthus retroflexus; conditions: 21 days, scale 0 to 100
Source text: as §1, §2

[9] = system: fall panicum; assay: Test F postemergence; assay type: in vivo, Panicum dichotomiflorum; conditions: scale 0 to 100
Source text: Seeds of plant species selected from corn (Zea mays), soybean (Glycine max), velvetleaf (Abutilon theophrasti), lambsquarters (Chenopodium album), wild poinsettia (Euphorbia heterophylla), pigweed, palmer (palmer pigweed, Amaranthus palmeri), common waterhemp (Amaranthus rudis), surinam grass (Brachiaria decumbens), large crabgrass (Digitaria sanguinalis), crabgrass, Brazil (Brazilian crabgrass, Digitaria horizontalis), fall panicum (Panicum dichotomiflorum), giant foxtail (Setaria faberii), green foxtail (Setaria viridis), goosegrass (Eleusine indica), johnsongrass (Sorghum halepense), common ragweed (Ambrosia elation), barnyardgrass (Echinochloa crus-galli), southern sandbur (Cenchrus echinatus), arrowleaf sida (Sida rhombifolia), Italian ryegrass (Lolium multiflorum), dayflower, VA (Virginia (VA) dayflower, Commelina virginica), field bindweed (Convolvulus arvensis), cocklebur (common cocklebur, Xanthium strumarium), morningglory (Ipomoea coccinea), nightshade (eastern black nightshade, Solanum ptycanthum), kochia (Kochia scoparia), yellow nutsedge (Cyperus esculentus), and hairy beggarticks (Bidens pilosa), were planted into a silt loam soil and treated preemergence with test chemicals formulated in a non-phytotoxic solvent mixture which included a surfactant.
At the same time, plants from these crop and weed species and also horseweed (Canada horseweed, Conyza canadensis), smartweed (ladysthumb smartweed, Polygonum persicaria), waterhemp_RES1, (ALS & Triazine resistant common waterhemp, Amaranthus rudis), and waterhemp_RES2, (ALS & HPPD resistant common waterhemp, Amaranthus rudis) were treated with postemergence applications of test chemicals formulated in the same manner. Plants ranged in height from 2 to 18 cm for postemergence treatments (1- to 4-leaf stage). Treated plants and controls were maintained in a greenhouse for 14 to 21 days, after which time all species were compared to controls and visually evaluated. Plant response ratings, summarized in Table F, are based on a scale of 0 to 100 where 0 is no effect and 100 is complete control. A dash (-) response means no test result.

[10] = system: barnyardgrass; assay: Test F postemergence; assay type: in vivo, Echinochloa crus-galli; conditions: scale 0 to 100
Summary of the method: (§3)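 Greenhouse study; evaluation window 14–21 days post-treatment. Seedlings sprayed postemergence measured 2–18 cm, while preemergence treatments went on silt loam soil. Non-phytotoxic solvent mixture with surfactant served as vehicle; response assessed by eye, 0–100 scale.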

[11] = system: smartweed; assay: Test F postemergence; assay type: in vivo, Polygonum persicaria; conditions: 500 g ai/ha, scale 0 to 100
Summary of the method: as §3

SMILES: CCc1cc(C(=O)NCC(F)(F)F)nn1Cc1ccnc(C(F)(F)F)c1 [Compound 78, 5-ethyl-N-(2,2,2-trifluoroethyl)-1-[[(2-trifluoromethyl)-4-pyridinyl]methyl]-1H-pyrazole-3-carboxamide]
- Plant response rating, Guineagrass ([1]; 16 g ai/ha): 90
- Plant response rating, Guineagrass ([1]; 31 g ai/ha): 100
- Plant response rating, Guineagrass ([1]; 62 g ai/ha): 100
- Plant response rating, Guineagrass ([1]; 125 g ai/ha): 100
- Plant response rating, Guineagrass ([1]; 250 g ai/ha): 100
- Plant response rating, Sowthistle ([2]; 62 g ai/ha): 100
- Plant response rating, Sowthistle ([2]; 125 g ai/ha): 100
- Plant response rating, Sowthistle ([2]; 250 g ai/ha): 100
- Plant response rating, Ryegrass, Italian ([3]; 16 g ai/ha): 10
- Plant response rating, Ryegrass, Italian ([3]; 31 g ai/ha): 50
- Plant response rating, Ryegrass, Italian ([3]; 62 g ai/ha): 90
- Plant response rating, Ryegrass, Italian ([3]; 125 g ai/ha): 100
- Plant response rating, Ryegrass, Italian ([3]; 250 g ai/ha): 100
- Plant response rating, Signalgrass ([4]; 16 g ai/ha): 70
- Plant response rating, Signalgrass ([4]; 31 g ai/ha): 100
- Plant response rating, Signalgrass ([4]; 62 g ai/ha): 100
- Plant response rating, Signalgrass ([4]; 125 g ai/ha): 100
- Plant response rating, Signalgrass ([4]; 250 g ai/ha): 100
- Plant response rating, Bluegrass ([5]; 16 g ai/ha): 40
- Plant response rating, Bluegrass ([5]; 31 g ai/ha): 75
- Plant response rating, Bluegrass ([5]; 62 g ai/ha): 90
- Plant response rating, Bluegrass ([5]; 125 g ai/ha): 100
- Plant response rating, Bluegrass ([5]; 250 g ai/ha): 100
- Plant response rating, Mallow ([6]; 16 g ai/ha): 100
- Plant response rating, Mallow ([6]; 31 g ai/ha): 100
- Plant response rating, Mallow ([6]; 62 g ai/ha): 100
- Plant response rating, Mallow ([6]; 125 g ai/ha): 100
- Plant response rating, Mallow ([6]; 250 g ai/ha): 100
- Plant response rating, Buckwheat, Wild ([7]; 16 g ai/ha): 60
- Plant response rating, Buckwheat, Wild ([7]; 31 g ai/ha): 100
- Plant response rating, Buckwheat, Wild ([7]; 62 g ai/ha): 100
- Plant response rating, Buckwheat, Wild ([7]; 125 g ai/ha): 100
- Plant response rating, Buckwheat, Wild ([7]; 250 g ai/ha): 100
- Plant response rating, Pigweed ([8]; 16 g ai/ha): 100
- Plant response rating, Pigweed ([8]; 31 g ai/ha): 100
- Plant response rating, Pigweed ([8]; 62 g ai/ha): 100
- Plant response rating, Pigweed ([8]; 125 g ai/ha): 100
- Plant response rating, Pigweed ([8]; 250 g ai/ha): 100
- Plant response rating, Fall Panicum ([9]; Postemergence, 31 g ai/ha): 10
- Plant response rating, Fall Panicum ([9]; Postemergence, 125 g ai/ha): 50
- Plant response rating, Fall Panicum ([9]; Postemergence, 250 g ai/ha): 90
- Plant response rating, Fall Panicum ([9]; postemergence, 62 g ai/ha): 20
- Plant response rating, Fall Panicum ([9]; postemergence, 500 g ai/ha): 95
- Plant response rating, Barnyardgrass ([10]; Postemergence, 31 g ai/ha): 5
- Plant response rating, Barnyardgrass ([10]; Postemergence, 125 g ai/ha): 40
- Plant response rating, Barnyardgrass ([10]; Postemergence, 250 g ai/ha): 70
- Plant response rating, Barnyardgrass ([10]; postemergence, 62 g ai/ha): 30
- Plant response rating, Barnyardgrass ([10]; postemergence, 500 g ai/ha): 90
- Plant response rating, Smartweed [11]: 100

SMILES: CCOc1cc(C(=O)NCC(F)(F)F)nn1Cc1ccnc(C(F)(F)F)c1 [Compound 104]
- Plant response rating, Guineagrass ([1]; 16 g ai/ha): 100
- Plant response rating, Guineagrass ([1]; 31 g ai/ha): 100
- Plant response rating, Guineagrass ([1]; 62 g ai/ha): 100
- Plant response rating, Guineagrass ([1]; 125 g ai/ha): 100
- Plant response rating, Guineagrass ([1]; 250 g ai/ha): 100
- Plant response rating, Ryegrass, Italian ([3]; 16 g ai/ha): 75
- Plant response rating, Ryegrass, Italian ([3]; 31 g ai/ha): 98
- Plant response rating, Ryegrass, Italian ([3]; 62 g ai/ha): 100
- Plant response rating, Ryegrass, Italian ([3]; 125 g ai/ha): 100
- Plant response rating, Ryegrass, Italian ([3]; 250 g ai/ha): 100
- Plant response rating, Signalgrass ([4]; 16 g ai/ha): 35
- Plant response rating, Signalgrass ([4]; 31 g ai/ha): 75
- Plant response rating, Signalgrass ([4]; 62 g ai/ha): 100
- Plant response rating, Signalgrass ([4]; 125 g ai/ha): 100
- Plant response rating, Signalgrass ([4]; 250 g ai/ha): 100
- Plant response rating, Bluegrass ([5]; 16 g ai/ha): 85
- Plant response rating, Bluegrass ([5]; 31 g ai/ha): 100
- Plant response rating, Bluegrass ([5]; 62 g ai/ha): 100
- Plant response rating, Bluegrass ([5]; 125 g ai/ha): 100
- Plant response rating, Bluegrass ([5]; 250 g ai/ha): 100
- Plant response rating, Mallow ([6]; 16 g ai/ha): 40
- Plant response rating, Mallow ([6]; 31 g ai/ha): 98
- Plant response rating, Mallow ([6]; 62 g ai/ha): 100
- Plant response rating, Mallow ([6]; 125 g ai/ha): 98
- Plant response rating, Mallow ([6]; 250 g ai/ha): 100
- Plant response rating, Buckwheat, Wild ([7]; 16 g ai/ha): 100
- Plant response rating, Buckwheat, Wild ([7]; 31 g ai/ha): 100
- Plant response rating, Buckwheat, Wild ([7]; 62 g ai/ha): 100
- Plant response rating, Buckwheat, Wild ([7]; 125 g ai/ha): 100
- Plant response rating, Buckwheat, Wild ([7]; 250 g ai/ha): 100
- Plant response rating, Pigweed ([8]; 16 g ai/ha): 100
- Plant response rating, Pigweed ([8]; 31 g ai/ha): 100
- Plant response rating, Pigweed ([8]; 62 g ai/ha): 100
- Plant response rating, Pigweed ([8]; 125 g ai/ha): 100
- Plant response rating, Pigweed ([8]; 250 g ai/ha): 100
- Plant response rating, Fall Panicum ([9]; Postemergence, 31 g ai/ha): 10
- Plant response rating, Fall Panicum ([9]; Postemergence, 125 g ai/ha): 50
- Plant response rating, Fall Panicum ([9]; Postemergence, 250 g ai/ha): 80
- Plant response rating, Fall Panicum ([9]; postemergence, 62 g ai/ha): 40
- Plant response rating, Fall Panicum ([9]; postemergence, 500 g ai/ha): 90
- Plant response rating, Barnyardgrass ([10]; Postemergence, 31 g ai/ha): 0
- Plant response rating, Barnyardgrass ([10]; Postemergence, 125 g ai/ha): 30
- Plant response rating, Barnyardgrass ([10]; Postemergence, 250 g ai/ha): 80
- Plant response rating, Barnyardgrass ([10]; postemergence, 62 g ai/ha): 10
- Plant response rating, Barnyardgrass ([10]; postemergence, 500 g ai/ha): 95
- Plant response rating, Smartweed [11]: 98
